Earlier results, collected in patent US8623409B1, “Clonidine formulation” (Tris Pharma Inc., priority 2010, dated 2014).

Details: plasma level; see US patent application 2008/0152709

SMILES: Clc1cccc(Cl)c1NC1=NCCN1 [clonidine, N-(2,6-dichlorophenyl)-4,5-dihydro-1H-imidazol-2-amine]
- minimum effective dose for clonidine use as an anti-hypertensive agent: 200 pg/mL
